Data: patent US20180200261A1, “METHODS AND MATERIALS FOR TREATING CANCER” (Mayo Foundation for Medical Education and Research, priority 2015, published 2018)

Columns and labels:
OVCAR10 cells = experiment: PARP inhibitor sensitivity assay (colony formation), OVCAR10; assay type: cell-based; settings: OVCAR10, JQ1 100 nM, OTX015 100 nM, i-BET-762 250 nM together with AZD2281 0-10 μM, 1 to 2 weeks, clones counted
Protocol: FIG. 3. […] OVCAR10 cells were plated in 6 well plates at a density of 500 cells/well. JQ1 (100 nM), OTX015 (100 nM), and i-BET-762 (250 nM) were added together with different concentrations of AZD2281 (0, 0.1, 1, or 10 μM). […] The cells were cultured for 1 to 2 weeks until clones were visible for counting.
Cells were plated in 6 well plates with at a density of 500 cells/well. BET inhibitors were added together with different concentrations of AZD2281 (0, 0.1, 1, or 10 μM), and the cells were cultured for 1 to 2 weeks until the colonies were visible for counting.

HeLa cells = experiment: Immunofluorescence of ionizing radiation induced foci (IRIF); assay type: cell-based; settings: 250 nM JQ1, irradiated
Protocol: FIGS. 1A-B. BET inhibitor affects DNA repair efficiency. (A and B) HeLa cells treated with (JQ1) or without (CK) 250 nM JQ1 were irradiated (2 Gy) and probed with the indicated antibodies at different time points.
To visualize ionizing radiation induced foci (IRIF), cells were cultured on coverslips and treated with 5 Gy ionizing radiation (IR) followed by recovery as indicated. Cells were then washed in PBS, incubated in 3% paraformaldehyde for 15 minutes, and permeabilized in 0.5% Triton solution for 5 minutes at room temperature. Samples were blocked with 5% goat serum and then incubated with primary antibodies for 30 minutes. Samples were washed three times and incubated with secondary antibodies for 30 minutes. Cells were then stained with DAPI to visualize nuclear DNA. The coverslips were mounted onto glass slides with anti-fade solution and visualized using a Nikon eclipse 80i fluorescence microscope. The following antibodies were used in immunofluorescence: rH2Ax (Millipore) and Rad51 (GeneTex).
To check the effect of BET inhibitor in the DNA repair pathway, the foci of rH2Ax and RAD51 were examined (FIG. 1). rH2Ax is the marker of damaged DNA. RAD51 is an enzyme involved in homology recombination. Both proteins can form foci at damaged DNA sites.

## Cc1sc2c(c1C)C(c1ccc(Cl)cc1)=N[C@@H](CC(=O)Nc1ccc(O)cc1)c1nnc(C)n1-2 [OTX015, (6S)-4-(4-chlorophenyl)-N-(4-hydroxyphenyl)-2,3,9-trimethyl-6H-thieno[3,2-f][1,2,4]triazolo[4,3-a][1,4]diazepine-6-acetamide]
OVCAR10 cells
  cell sensitivity to PARP inhibitor: affect cell sensitivity to PARP inhibitor

## Cc1sc2c(c1C)C(c1ccc(Cl)cc1)=N[C@@H](CC(=O)OC(C)(C)C)c1nnc(C)n1-2 [JQ1, (S)-tert-butyl 2-(4-(4-chlorophenyl)-2,3,9-trimethyl-6H-thieno[3,2-f][1,2,4]triazolo[4,3-a][1,4]diazepin-6-yl)acetate]
HeLa cells; 24 hours after IR
  rH2Ax foci (rH2Ax positive cells) after IR: sustained at high levels
HeLa cells; different time points
  RAD51 foci after IR: affected RAD51 in a similar manner
OVCAR10 cells
  cell sensitivity to PARP inhibitor: affect cell sensitivity to PARP inhibitor

## CCNC(=O)C[C@@H]1N=C(c2ccc(Cl)cc2)c2cc(OC)ccc2-n2c(C)nnc21 [i-BET-762, (S)-2-(6-(4-chlorophenyl)-8-methoxy-1-methyl-4H-benzo[f][1,2,4]triazolo[4,3-a][1,4]diazepin-4-yl)-N-ethylacetamide]
OVCAR10 cells
  cell sensitivity to PARP inhibitor: affect cell sensitivity to PARP inhibitor
